Entries after “also recorded” stand apart in the source; their conditions may differ. Each block holds one compound with its values, some of them ahead of it.
Columns and labels:
[1] = target: T1, BNPI (VGLUT1) (Rattus norvegicus, UniProt Q62634); assay: 3H-glutamate uptake by membranes from PC12 cells expressing BNPI; format: biochemical; conditions: for inhibition of 3H-glutamate uptake by membranes expressing BNPI: uptake at 5 min; for effect on 3H-glutamate uptake by BNPI membranes: membranes preloaded with 4 mM KCl
T1 construct: expressed in transfected cells; light membranes prepared from them
T1 sequence (Q62634 1-560): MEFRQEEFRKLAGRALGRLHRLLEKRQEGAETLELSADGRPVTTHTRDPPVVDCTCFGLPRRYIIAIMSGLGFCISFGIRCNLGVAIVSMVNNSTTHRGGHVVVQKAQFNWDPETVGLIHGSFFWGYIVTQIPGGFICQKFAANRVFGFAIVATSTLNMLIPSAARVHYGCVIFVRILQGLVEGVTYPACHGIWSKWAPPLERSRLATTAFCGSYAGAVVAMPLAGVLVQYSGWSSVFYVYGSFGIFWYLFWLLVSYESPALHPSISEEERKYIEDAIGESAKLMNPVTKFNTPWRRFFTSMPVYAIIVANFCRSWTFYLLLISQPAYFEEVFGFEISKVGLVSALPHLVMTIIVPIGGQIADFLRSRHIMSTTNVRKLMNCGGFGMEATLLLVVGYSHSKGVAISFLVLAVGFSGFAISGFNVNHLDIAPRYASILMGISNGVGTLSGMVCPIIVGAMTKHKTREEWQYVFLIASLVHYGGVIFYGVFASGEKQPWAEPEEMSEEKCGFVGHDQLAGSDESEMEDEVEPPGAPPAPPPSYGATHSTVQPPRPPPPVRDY
Description: Rather, the type I transporter NaPi-1 transports organic anions, including phenol red and penicillin G, with substantially higher apparent affinity than Pi (Busch et al. (1996) Proc. Natl. Acad. Sci., USA, 93: 5347). Human genetic studies have shown that mutations in another protein closely related to BNPI and NaPi-1 account for disorders of sialic acid storage (Verheijen et al. (1999) Nature Genet. 23: 462). In these conditions, sialic acid accumulates in lysosomes because of a defect in proton-driven export (Renlund et al. (1986) Science 232: 759; Mancini et al. (1989) J. Biol. Chem. 264: 15247; Tietze et al. (1989) J. Biol. Chem. 264: 15316; Mancini et al. (1992) Proc. Natl. Acad. Sci., USA, 89: 6609). […] To determine whether BNPI mediates the transport of glutamate into synaptic vesicles, we transfected the rat BNPI cDNA into rat pheochromocytoma PC12 cells, which lack detectable endogenous BNPI protein. The rat BNPI cDNA was stably expressed in PC12 cells, and immunofluorescence for BNPI was used to identify the most highly expressing cell clones. Membranes were prepared by homogenizing the washed cells in SH buffer [0.32 M sucrose and 10 mM Hepes-KOH (pH 7.4)] containing protease inhibitors and by pelleting the nuclei at 1000 g for 5 min and the heavier membranes at 27,000 g for 35 min. The supernatant containing lighter membranes was then pelleted at 210,000 g for 1 hour and resuspended in SH buffer with protease inhibitors at a final concentration of ˜10 μg protein/μl.
We then prepared a population of light membranes, including synaptic-like microvesicles, from the transfected and untransfected cells (McIntire et al. (1997) Nature 389: 870) and tested their ability to accumulate 3H-glutamate in the presence of 4 mM chloride and ATP, conditions that optimize glutamate accumulation by native synaptic vesicles (Maycox et al. (1988) J. Biol. Chem., 263: 15423; Carlson et al. […] J. Biol. Chem. 264: 7369). To initiate the transport reaction, we added 10 μl of membranes to 190 μl of SH buffer containing 4 mM KCl, 4 mM MgSO4, 4 mM ATP, and 50 μM 3H-glutamate, with other additions noted in the text and figure legends. The reaction mixture was incubated at 29° C. for varying times, and the uptake was terminated by rapid filtration, followed by immediate washes with 6 ml of cold 0.155 M potassium tartrate and 10 mM Hepes (pH 7.4). Background uptake was determined using membranes prepared from untransfected cells that were incubated for the same amount of time at the same temperature. Transport measurements were performed in duplicate with at least two different preparations of membranes. The Km was calculated by averaging the results of two separate determinations.

[2] = target: T2, DNPI/VGLUT2 (Rattus norvegicus, UniProt Q9JI12); assay: 3H-L-glutamate uptake by membranes from PC12 cells expressing DNPI/VGLUT2; format: biochemical; conditions: for effect on 3H-glutamate uptake by DNPI membranes: preloaded 4 mM KCl, 5 minutes; for inhibition of DNPI-mediated 3H-L-glutamate uptake: uptake at 5 minutes
T2 construct: To reconstruct the full open reading frame, the missing segment was amplified from rat brain cDNA by PCR; expressed in transfected cells; light membranes prepared from them
T2 sequence (Q9JI12 1-582): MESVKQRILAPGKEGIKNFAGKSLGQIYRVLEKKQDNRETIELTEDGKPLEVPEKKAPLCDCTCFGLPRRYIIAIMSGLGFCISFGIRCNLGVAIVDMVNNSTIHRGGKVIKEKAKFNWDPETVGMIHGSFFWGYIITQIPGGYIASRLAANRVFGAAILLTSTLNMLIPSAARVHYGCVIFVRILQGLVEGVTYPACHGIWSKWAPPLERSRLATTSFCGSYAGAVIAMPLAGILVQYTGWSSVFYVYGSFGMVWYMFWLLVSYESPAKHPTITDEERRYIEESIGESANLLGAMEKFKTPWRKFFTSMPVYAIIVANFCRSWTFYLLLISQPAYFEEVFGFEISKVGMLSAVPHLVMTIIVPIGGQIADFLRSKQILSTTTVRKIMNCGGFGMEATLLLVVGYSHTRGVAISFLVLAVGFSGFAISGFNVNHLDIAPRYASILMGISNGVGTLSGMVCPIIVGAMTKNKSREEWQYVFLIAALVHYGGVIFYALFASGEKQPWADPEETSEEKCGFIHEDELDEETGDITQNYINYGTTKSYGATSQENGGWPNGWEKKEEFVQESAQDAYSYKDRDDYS
Protocol: PC12 cells were grown in Dulbecco's modified Eagle's medium containing 10% equine serum, 5% calf serum and transfected by electroporation with the rat DNPI/VGLUT2 cDNA subcloned in the pcDNA3 vector containing an […] (Krantz et al. (2000) J. Cell Biol. 149). Stable transformants were selected for resistance to the neomycin analog G418 (500 μg/ml) and screened by immunofluorescence with the DNPI antibody, resulting in the identification of two independent clones with more than 80% of the cells expressing DNPI.
For membrane preparation, untransfected and DNPI-expressing PC12 cells were grown on 15 cm plates, washed with calcium- and magnesium-free PBS, collected in 0.32 M sucrose/10 mM HEPES-KOH, pH 7.4 (SH buffer) containing protease inhibitors (2 μg/ml leupeptin, 1 μg/ml pepstatin, 1 μg/ml E64, 0.2 mM diisopropylfluorphosphate, 2 μg/ml aprotinin, and 1.25 mM MgEGTA), homogenized using a ball bearing device and the homogenate sedimented at 1000 g for 5 min to remove nuclei and debris. The supernatant was then sedimented at 27,000 g for 35 min to remove heavier membranes. The remaining light membranes including small synaptic-like microvesicles were then sedimented at 210,000 g for 1 hour. The pellet was resuspended in SH buffer with protease inhibitors at ˜10 mg protein/ml.
To initiate the transport reaction, 20 μl membranes (˜200 μg protein) were added to 180 μl SH buffer containing 4 mM KCl, 4 mM MgSO4, […], and 100 μM ^3H-L-glutamate, with other additions noted in the text and figure legends. The reaction mixture was incubated at 29° C. for varying intervals, uptake was terminated by rapid filtration through Supor-200 membranes (Gelman) and the filters were washed rapidly four times with 1.5 ml cold 0.155 M potassium tartrate/10 mm HEPES-KOH, pH 7.4 before measuring the bound radioactivity by scintillation counting in 3 ml Cytoscint (ICN). Uptake specifically mediated by DNPI/VGLUT2 was determined by subtracting the background uptake of untransfected cell membranes from the uptake by transfected cell membranes. To examine the chloride dependence of transport, varying proportions of 0.14 M K gluconate and 0.14 M KCl were mixed in the standard reaction buffer (without sucrose) to vary the chloride concentration and maintain constant osmolarity. The ionophores nigericin and valinomycin used in FIG. 13E were prepared as 200× stock solutions in ethanol. The final ethanol concentration in the reaction mixture was 1%.

[3] = test system: synaptic vesicles; conditions: cited from earlier work
[4] = test system: untransfected PC12 cell membranes; assay: background 3H-glutamate uptake by membranes from untransfected PC12 cells; format: biochemical, rat; conditions: uptake at 5 min
Protocol: To initiate the transport reaction, we added 10 μl of membranes to 190 μl of SH buffer containing 4 mM KCl, 4 mM MgSO4, 4 mM ATP, and 50 μM 3H-glutamate, with other additions noted in the text and figure legends. […] Background uptake was determined using membranes prepared from untransfected cells that were incubated for the same amount of time at the same temperature. Transport measurements were performed in duplicate with at least two different preparations of membranes. The Km was calculated by averaging the results of two separate determinations.

inhibition of 3H-L-glutamate uptake by DNPI ([2]; Pi, data not shown): does not
Structure (SMILES): O=P(O)(O)O [Pi, inorganic phosphate]
inhibition of 3H-glutamate uptake by membranes expressing BNPI ([1]; 10 mM): did not inhibit; also recorded: has little effect

inhibition of 3H-glutamate uptake by membranes expressing BNPI ([1]; 10 mM): had no effect and not
Structure (SMILES): NC(=O)CC[C@H](N)C(=O)O [L-glutamine]

inhibition of DNPI-mediated 3H-L-glutamate uptake ([2]; 10 mM): not
Structure (SMILES): NCC(=O)O [glycine]

inhibition of DNPI-mediated 3H-L-glutamate uptake ([2]; 10 mM): not
Structure (SMILES): NCCCC(=O)O [GABA, γ-aminobutyric acid]

Second part, the compound before the results:

Structure (SMILES): O=S(=O)(O)c1cc(N=C=S)ccc1C=Cc1ccc(N=C=S)cc1S(=O)(=O)O [DIDS, 4,4′-diisothiocyanatostilbene-2,2′-disulfonic acid]
inhibition of 3H-glutamate uptake by membranes expressing BNPI ([1]; 1 μM DIDS): blocks transport only partly
inhibition at 1 µM ([1]; 1 μM DIDS, read-out: inhibition of 3H-glutamate transport mediated by BNPI): ~60%
IC50 ([3]; read-out: median inhibitory concentration, glutamate transport by synaptic vesicles): ~0.7 µM

Structure (SMILES): CO[C@@H]1C[C@@H](C[C@H]2CC[C@H](C)[C@H]([C@@H](C)C(=O)O)O2)O[C@]2(O[C@](C)([C@H]3CC[C@@](C)([C@@H]4O[C@@H]([C@H]5O[C@@](O)(CO)[C@H](C)C[C@@H]5C)C[C@@H]4C)O3)C[C@H]2C)[C@@H]1C [nigericin]
effect on 3H-glutamate uptake by BNPI membranes ([1]; nigericin 5 μM): increases the uptake
effect on 3H-glutamate uptake by DNPI membranes ([2]; 5 μM nigericin): did not significantly reduce transport

Structure (SMILES): Cc1cc(-c2ccc(/N=N/c3ccc4c(S(=O)(=O)O)cc(S(=O)(=O)O)c(N)c4c3O)c(C)c2)ccc1/N=N/c1ccc2c(S(=O)(=O)O)cc(S(=O)(=O)O)c(N)c2c1O [Evans blue]
inhibition of 3H-glutamate uptake by membranes expressing BNPI ([1]; Evans blue 5 μM (low micromolar)): inhibited the transport; also recorded: inhibits BNPI activity dramatically
inhibition of glutamate transport into synaptic vesicles ([3]; low micromolar concentrations): inhibited the transport
inhibition of DNPI-mediated 3H-L-glutamate uptake ([2]; Evans Blue 4.5 μM): inhibit uptake; also recorded: significantly inhibit
effect on background glutamate uptake by untransfected cell membranes [4]: had little effect

Structure (SMILES): N[C@H](CC(=O)O)C(=O)O [D-aspartate]
inhibition of DNPI-mediated 3H-L-glutamate uptake ([2]; 10 mM): not

Structure (SMILES): N[C@H](CCC(=O)O)C(=O)O [D-Glutamate]
inhibition of 3H-glutamate uptake by membranes expressing BNPI ([1]; 10 mM): partially inhibits
inhibition of DNPI-mediated 3H-L-glutamate uptake ([2]; 10 mM): significantly inhibit
inhibition of DNPI-mediated 3H-L-glutamate uptake ([2]; 10 mM, listed as D-glutamate): inhibit uptake

Structure (SMILES): CC(C)[C@@H]1NC(=O)[C@H](C)OC(=O)[C@@H](C(C)C)NC(=O)[C@@H](C(C)C)OC(=O)[C@H](C(C)C)NC(=O)[C@H](C)OC(=O)[C@@H](C(C)C)NC(=O)[C@@H](C(C)C)OC(=O)[C@H](C(C)C)NC(=O)[C@H](C)OC(=O)[C@@H](C(C)C)NC(=O)[C@@H](C(C)C)OC1=O [valinomycin]
effect on 3H-glutamate uptake by BNPI membranes ([1]; valinomycin 20 μM): substantially reduces glutamate uptake
effect on 3H-glutamate uptake by DNPI membranes ([2]; 20 μM valinomycin): inhibits
